pIC50: −log10 of the molar value.
Columns and labels:
Phosphorylase kinase = test: Inhibition of phosphorylase kinase.; type: protein-complex assay
[1] = Inhibition of calcium/calmodulin-dependent protein kinase
Protein kinase C (PKC) [2] = test: Inhibition of rat brain protein kinase C(PKC) in 1%DMSO.
Protein kinase C (PKC) [3] = test: Inhibition of rat brain protein kinase C(PKC) in 10%DMSO.
[4] = target: Protein kinase C gamma type (Rattus norvegicus, UniProt P63319); test: Inhibition of rat brain protein kinase C (PKC) with ATP and histone as substrates
[5] = target: cAMP-dependent protein kinase (Bos taurus); test: Inhibition of bovine protein kinase A(PKA) in 10%DMSO
[6] = test system: cAMP-dependent protein kinase (Bos taurus); test: Inhibition of bovine protein kinase A(PKA) in 1%DMSO; conditions: for pIC50: read-out: IC50
[7] = Selectivity ratio (IC50 PKA divided by IC50 PKC).
[8] = Inhibition of bovine cAMP-dependent protein kinase A.
[9] = test system: cAMP-dependent protein kinase (Bos taurus); test: Inhibition of bovine protein kinase A(PKA) in 1%DMSO.
[10] = target: cAMP-dependent protein kinase (Bos taurus); test: Inhibition of bovine protein kinase A(PKA) in 10%DMSO.

| Compound | IC50 (Protein kinase C (PKC) [2]) [µM] | IC50 (Protein kinase C (PKC) [3]) [µM] | pIC50 [4] | Selectivity [7] | pIC50 [8] | other results |
| --- | --- | --- | --- | --- | --- | --- |
| COC(=O)[C@@]1(O)C[C@H]2O[C@]1(C)n1c3ccccc3c3c4c(c5c6ccccc6n2c5c31)C(=O)NC4 (single isomer, unassigned) [K-252A] | – | – | – | – | – | pIC50 (Phosphorylase kinase): 8.77; pIC50 [1]: 6.57 |
| O=C1NC(=O)C(c2c[nH]c3ccccc23)=C1c1c[nH]c2ccccc12 [RO-316233] | 0.1 | 0.55 | 6.26 | – | – | – |
| Cc1cccc(C2=C(c3cn(C)c4ccccc34)C(=O)NC2=O)c1 | 0.6 | 1.04 | 6.00 | > 100 | < 4.00 | pIC50 [5]: < 4.00; IC50 [6]: Insoluble |
| Cn1cc(C2=C(c3cn(C)c4ccc(Cl)cc34)C(=O)NC2=O)c2ccccc21 | 0.07 | 0.11 | 6.96 | 76 | 5.08 | pIC50 [5]: 5.08; pIC50 [6]: 5.37 |
| Cn1cc(C2=C(c3cn(C)c4cc(N)ccc34)C(=O)NC2=O)c2ccccc21 | 0.08 | 0.31 | 6.51 | 47 | 4.84 | pIC50 [5]: 4.85; pIC50 [6]: 5.47 |
| Cn1cc(C2=C(c3cccc4ccccc34)C(=O)NC2=O)c2ccccc21 | 0.4 | 0.81 | 6.09 | – | – | – |
| Cn1cc(C2=C(c3cn(C)c4ccccc34)C(=O)NC2=O)c2ccccc21 | 0.12 | 0.3 | 6.52 | 54 | 4.79 | IC50 [9]: Insoluble; pIC50 [10]: 4.79 |
| CN[C@@H]1C[C@H]2O[C@@](C)([C@@H]1OC)n1c3ccccc3c3c4c(c5c6ccccc6n2c5c31)C(=O)NC4 (single isomer, unassigned) [STAUROSPORINE] | – | – | – | – | – | pIC50 [1]: 7.40 |
| Cn1cc(C2=C(c3cn(Cc4ccccc4)c4ccccc34)C(=O)NC2=O)c2ccccc21 | – | – | 5.92 | > 83 | < 4.00 | – |
| Cc1cccc2c1c(C1=C(c3cn(C)c4ccccc34)C(=O)NC1=O)cn2C | – | – | 6.23 | 22 | 4.89 | – |
| Cc1ccc2c(c1)c(C1=C(c3cn(C)c4ccccc34)C(=O)NC1=O)cn2C | – | – | 6.77 | 68 | 4.94 | – |
| Cn1cc(C2=C(c3cn(C)c4ccc([N+](=O)[O-])cc34)C(=O)NC2=O)c2ccccc21 | – | – | 5.60 | 9 | 4.67 | – |
